Measured values: ChEMBL document CHEMBL1909046, “DrugMatrix in vitro pharmacology data”

Tests used:
[1] = DRUGMATRIX: Sodium/nucleoside co-transporter radioligand binding (ligand: nitrobenzylthioinosine); assay type: cell membranes, Cavia porcellus, Dunkin-Hartley, Cerebral cortex, Membrane; conditions: Not Active = under 50% inhibition at 10 µM
[2] = target: T1, Alpha-1D adrenergic receptor (Homo sapiens, UniProt P25100); assay type: cell membranes, HEK293, Membrane; conditions: hek293; note: in other assays of this panel Not Active means under 50% inhibition at 10 µM
T1 sequence (P25100 whole entry): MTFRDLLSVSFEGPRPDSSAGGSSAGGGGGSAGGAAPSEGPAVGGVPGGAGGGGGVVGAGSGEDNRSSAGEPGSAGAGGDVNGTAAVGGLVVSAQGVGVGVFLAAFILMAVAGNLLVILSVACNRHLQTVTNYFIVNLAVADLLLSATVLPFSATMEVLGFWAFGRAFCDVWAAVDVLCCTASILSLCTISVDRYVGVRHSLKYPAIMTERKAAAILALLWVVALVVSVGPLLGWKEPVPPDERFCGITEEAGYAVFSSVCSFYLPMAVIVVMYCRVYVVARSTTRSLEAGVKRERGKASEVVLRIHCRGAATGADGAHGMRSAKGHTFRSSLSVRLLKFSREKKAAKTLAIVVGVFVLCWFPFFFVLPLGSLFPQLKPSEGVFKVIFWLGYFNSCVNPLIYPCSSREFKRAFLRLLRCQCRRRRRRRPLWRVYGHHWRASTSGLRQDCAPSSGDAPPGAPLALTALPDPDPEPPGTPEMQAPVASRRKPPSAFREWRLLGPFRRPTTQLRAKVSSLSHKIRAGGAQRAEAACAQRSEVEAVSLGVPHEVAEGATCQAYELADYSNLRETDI

[3] = target: T2, Alpha-2A adrenergic receptor (Homo sapiens, UniProt P08913); assay type: cell membranes, Sf9, Membrane; note: in other assays of this panel Not Active means under 50% inhibition at 10 µM
T2 sequence (P08913 whole entry): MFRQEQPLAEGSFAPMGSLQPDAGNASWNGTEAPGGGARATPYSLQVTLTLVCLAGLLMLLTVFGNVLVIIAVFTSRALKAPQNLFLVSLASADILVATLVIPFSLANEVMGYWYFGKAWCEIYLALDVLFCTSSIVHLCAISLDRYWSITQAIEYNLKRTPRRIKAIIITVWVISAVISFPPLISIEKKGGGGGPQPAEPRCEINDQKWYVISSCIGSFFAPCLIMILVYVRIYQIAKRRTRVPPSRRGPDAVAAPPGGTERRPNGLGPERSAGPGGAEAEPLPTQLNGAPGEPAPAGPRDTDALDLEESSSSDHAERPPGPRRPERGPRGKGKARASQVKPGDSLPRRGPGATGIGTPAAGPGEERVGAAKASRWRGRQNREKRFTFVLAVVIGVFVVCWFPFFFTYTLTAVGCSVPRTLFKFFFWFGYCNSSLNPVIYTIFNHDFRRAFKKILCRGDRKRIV

[4] = target: Aldo-keto reductase family 1 member B1 (Rattus norvegicus, UniProt P07943); assay type: tissue-based, Lens of camera-type eye;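 note: inhibition of aldose reductase enzyme activity, measured with DL-glyceraldehyde as the substrate; in other assays of this panel Not Active means under 50% inhibition at 10 µM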
[5] = DRUGMATRIX: Atrial Natriuretic Factor (ANF) radioligand binding (ligand: [125I] ANF (rat)); assay type: cell membranes, Cavia porcellus, Dunkin-Hartley, Adrenal gland, Membrane; conditions: Not Active = under 50% inhibition at 10 µM
[6] = target: Substance-P receptor (Homo sapiens, UniProt P25103); assay type: cell membranes, CHO, Membrane; conditions: cho; note: in other assays of this panel Not Active means under 50% inhibition at 10 µM
[7] = DRUGMATRIX: Glutamate, NMDA, Agonism radioligand binding (ligand: [3H] CGP-39653); assay type: cell membranes, Rattus norvegicus, Wistar, Cerebral cortex, Membrane; conditions: Not Active = under 50% inhibition at 10 µM
[8] = DRUGMATRIX: Leukotriene, BLT (LTB4) radioligand binding (ligand: [3H]LTB4); assay type: cell membranes, Membrane; conditions: u-937; Not Active = under 50% inhibition at 10 µM
[9] = target: Melanocortin receptor 5 (Homo sapiens, UniProt P33032); assay type: cell membranes, HEK293, Membrane; conditions: hek293; note: in other assays of this panel Not Active means under 50% inhibition at 10 µM
[10] = target: T3, Muscarinic acetylcholine receptor M2 (Homo sapiens, UniProt P08172); assay type: cell membranes, CHO-K1, Membrane; conditions: cho-k1; note: in other assays of this panel Not Active means under 50% inhibition at 10 µM
T3 sequence (P08172 whole entry): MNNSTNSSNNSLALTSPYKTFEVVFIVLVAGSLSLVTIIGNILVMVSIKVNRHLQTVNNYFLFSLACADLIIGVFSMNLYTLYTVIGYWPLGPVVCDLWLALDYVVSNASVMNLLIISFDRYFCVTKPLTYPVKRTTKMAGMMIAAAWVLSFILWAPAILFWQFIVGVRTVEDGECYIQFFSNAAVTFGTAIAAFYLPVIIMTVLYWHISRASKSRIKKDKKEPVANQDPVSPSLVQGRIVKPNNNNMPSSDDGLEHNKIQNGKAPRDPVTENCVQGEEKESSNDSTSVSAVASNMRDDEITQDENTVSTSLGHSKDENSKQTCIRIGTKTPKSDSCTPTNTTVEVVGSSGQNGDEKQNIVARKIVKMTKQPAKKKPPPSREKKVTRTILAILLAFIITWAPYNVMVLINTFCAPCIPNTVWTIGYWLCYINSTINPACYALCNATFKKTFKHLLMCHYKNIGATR

[11] = target: Adenosine receptor A2a (Homo sapiens, UniProt P29274); experiment: DRUGMATRIX: Adenosine A2A radioligand binding (ligand: […]); assay type: cell membranes, HEK293, Membrane; conditions: hek293; Not Active = under 50% inhibition at 10 µM
[12] = target: T4, Adenosine receptor A3 (Homo sapiens, UniProt P0DMS8); assay type: cell membranes, CHO-K1, Membrane; conditions: cho-k1
T4 sequence (P0DMS8 whole entry): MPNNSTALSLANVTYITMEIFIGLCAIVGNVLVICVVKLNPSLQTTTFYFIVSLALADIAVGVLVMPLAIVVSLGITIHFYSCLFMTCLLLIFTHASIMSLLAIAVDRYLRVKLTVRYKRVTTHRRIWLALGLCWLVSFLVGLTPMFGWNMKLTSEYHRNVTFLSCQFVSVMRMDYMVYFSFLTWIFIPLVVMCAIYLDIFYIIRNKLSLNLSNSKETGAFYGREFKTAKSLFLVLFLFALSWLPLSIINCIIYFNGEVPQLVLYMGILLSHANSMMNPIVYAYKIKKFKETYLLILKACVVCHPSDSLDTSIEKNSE

Melanocortin receptor 5, sequence (P33032 whole entry): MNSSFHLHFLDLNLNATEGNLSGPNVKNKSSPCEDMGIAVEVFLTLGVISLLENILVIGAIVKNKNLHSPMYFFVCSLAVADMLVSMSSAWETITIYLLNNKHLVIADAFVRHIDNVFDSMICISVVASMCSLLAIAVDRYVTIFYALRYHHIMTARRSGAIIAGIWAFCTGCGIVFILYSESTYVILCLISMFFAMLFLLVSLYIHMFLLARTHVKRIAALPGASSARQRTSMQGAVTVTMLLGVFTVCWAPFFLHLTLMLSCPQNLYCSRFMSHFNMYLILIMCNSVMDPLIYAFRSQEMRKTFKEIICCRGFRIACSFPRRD
Adenosine receptor A2a, sequence (P29274 whole entry): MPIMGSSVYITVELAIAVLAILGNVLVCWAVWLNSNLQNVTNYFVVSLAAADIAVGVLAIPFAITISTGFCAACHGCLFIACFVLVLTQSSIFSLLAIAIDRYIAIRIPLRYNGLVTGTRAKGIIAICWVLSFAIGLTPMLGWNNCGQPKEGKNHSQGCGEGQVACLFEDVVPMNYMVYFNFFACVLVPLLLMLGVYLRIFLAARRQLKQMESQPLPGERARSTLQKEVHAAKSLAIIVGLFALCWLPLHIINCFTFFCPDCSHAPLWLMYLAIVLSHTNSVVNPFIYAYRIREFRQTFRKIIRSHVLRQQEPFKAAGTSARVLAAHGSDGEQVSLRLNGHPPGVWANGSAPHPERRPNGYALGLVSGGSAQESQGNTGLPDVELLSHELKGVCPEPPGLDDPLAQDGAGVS
Substance-P receptor, sequence (P25103 whole entry): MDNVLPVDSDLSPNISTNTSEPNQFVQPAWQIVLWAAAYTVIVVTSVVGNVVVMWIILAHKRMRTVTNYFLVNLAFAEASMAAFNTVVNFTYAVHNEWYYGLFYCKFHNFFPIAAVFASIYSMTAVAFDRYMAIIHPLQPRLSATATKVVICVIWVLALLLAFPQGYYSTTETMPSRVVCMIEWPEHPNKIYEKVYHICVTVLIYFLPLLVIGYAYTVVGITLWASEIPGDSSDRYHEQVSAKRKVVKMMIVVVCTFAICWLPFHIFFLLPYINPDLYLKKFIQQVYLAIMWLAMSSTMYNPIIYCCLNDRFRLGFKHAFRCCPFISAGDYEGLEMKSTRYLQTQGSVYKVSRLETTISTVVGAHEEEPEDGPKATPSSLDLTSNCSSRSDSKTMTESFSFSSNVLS

Compound	IC50 [1]	Ki [1]	IC50 [2]	IC50 ([3]; sf9)	IC50 [4]	IC50 [5]	Ki [5]	IC50 [6]	IC50 [7]	Ki [7]	IC50 [8]	Ki [8]	IC50 [9]	IC50 [10]	IC50 [11]	IC50 [12]	Ki [2]	Ki ([3]; sf9)	Ki [4]	Ki [6]	other results
CCCc1cc(=O)[nH]c(=S)[nH]1 [PROPYLTHIOURACIL]	Not Active	Not Active	Not Active	Not Active	Not Active	Not Active	Not Active	Not Active	Not Active	Not Active	Not Active	Not Active	Not Active	Not Active	Not Active	Not Active					
COc1ccc(CN(CCN(C)C)c2ccccn2)cc1 [PYRILAMINE]	Not Active	Not Active	Not Active		Not Active	Not Active	Not Active	Not Active	Not Active	Not Active	Not Active	Not Active	Not Active	Not Active	Not Active	Not Active					IC50 ([3]; read-out: IC50): 2.98 µM; Ki ([3]; read-out: Ki): 1.12 µM
CARBOPLATIN	Not Active	Not Active	Not Active	Not Active	Not Active	Not Active	Not Active	Not Active	Not Active	Not Active	Not Active	Not Active	Not Active	Not Active	Not Active	Not Active	Not Active	Not Active	Not Active	Not Active	Ki [9]: Not Active; Ki [10]: Not Active; Ki [11]: Not Active; Ki [12]: Not Active
CISPLATIN	Not Active	Not Active	Not Active	Not Active	Not Active	Not Active	Not Active	Not Active	Not Active	Not Active	Not Active	Not Active		Not Active	Not Active		Not Active	Not Active	Not Active	Not Active	IC50 ([9]; read-out: IC50): 6.43 µM; Ki ([9]; read-out: Ki): 6.04 µM; Ki [10]: Not Active; Ki [11]: Not Active; IC50 ([12]; read-out: IC50): 4.24 µM; Ki ([12]; read-out: Ki): 2.4 µM
GOLD SODIUM THIOMALATE	Not Active	Not Active	Not Active	Not Active	Not Active	Not Active	Not Active	Not Active	Not Active	Not Active	Not Active	Not Active	Not Active	Not Active	Not Active		Not Active	Not Active	Not Active	Not Active	Ki [9]: Not Active; Ki [10]: Not Active; Ki [11]: Not Active; IC50 ([12]; read-out: IC50): 1.49 µM; Ki ([12]; read-out: Ki): 0.843 µM
OXALIPLATIN	Not Active	Not Active	Not Active	Not Active	Not Active	Not Active	Not Active	Not Active	Not Active	Not Active	Not Active	Not Active	Not Active	Not Active	Not Active	Not Active	Not Active	Not Active	Not Active	Not Active	Ki [9]: Not Active; Ki [10]: Not Active; Ki [11]: Not Active; Ki [12]: Not Active
